According to ChEMBL document CHEMBL1201862, “PubChem BioAssay data set” (2004):
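The compound was tested at five concentrations on cells cultured in 96-well plates, with a 48-hour exposure period. Abbreviation: GI50, concentration required for 50% inhibition of growth.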 Active and inactive are the calls of the source. Rule as the data show it: active = GI50 up to about 1.1 µM and inactive = higher.

Legend:
Assay in all cases: NCI tumour cell line growth inhibition, 48 h
MDA-N = system: MDA-N
U-251 = system: U-251
Malme-3M = system: Malme-3M
DU-145 = system: DU-145
CAKI-1 = system: CAKI-1
SNB-19 = system: SNB-19
NCI-H460 = system: NCI-H460
IGROV-1 = system: IGROV-1
SF-295 = system: SF-295
SK-MEL-28 = system: SK-MEL-28
SN12C = system: SN12C
OVCAR-5 = system: OVCAR-5
SK-MEL-2 = system: SK-MEL-2
NCI-H226 = system: NCI-H226
SF-539 = system: SF-539
OVCAR-8 = system: OVCAR-8
LOX IMVI = system: LOX IMVI
ACHN = system: ACHN

Measured: GI50

Cc1[nH]c(C)c(CN(C)C)c1CN(C)C
inactive: MDA-N > 100 µM | U-251 > 100 µM | Malme-3M > 100 µM | DU-145 > 100 µM | CAKI-1 > 100 µM | SNB-19 > 100 µM | NCI-H460 > 100 µM | IGROV-1 > 100 µM | SF-295 > 100 µM | SK-MEL-28 > 100 µM | SN12C > 100 µM | OVCAR-5 > 100 µM | SK-MEL-2 > 100 µM | NCI-H226 > 100 µM | SF-539 > 100 µM | OVCAR-8 > 100 µM | LOX IMVI > 100 µM | ACHN > 100 µM

COC(=O)C1CCOC(C)N1C(=O)OC(C)(C)C (stereo unspecified)
inactive: MDA-N > 100 µM | U-251 > 100 µM | Malme-3M > 100 µM | DU-145 > 100 µM | CAKI-1 > 100 µM | SNB-19 > 100 µM | NCI-H460 > 100 µM | IGROV-1 > 100 µM | SF-295 > 100 µM | SK-MEL-28 > 100 µM | SN12C > 100 µM | OVCAR-5 > 100 µM | SK-MEL-2 > 100 µM | NCI-H226 > 100 µM | SF-539 > 100 µM | OVCAR-8 > 100 µM | LOX IMVI > 100 µM | ACHN > 100 µM

Nc1ccc2nc3n(c(=O)c2c1)CCCCC3
inactive: MDA-N > 100 µM | U-251 > 100 µM | Malme-3M > 100 µM | DU-145 > 100 µM | CAKI-1 > 100 µM | NCI-H460 > 100 µM | IGROV-1 > 100 µM | SF-295 > 100 µM | SK-MEL-28 > 100 µM | SN12C > 100 µM | OVCAR-5 > 100 µM | SK-MEL-2 > 100 µM | NCI-H226 > 100 µM | SF-539 > 100 µM | OVCAR-8 > 100 µM | LOX IMVI > 100 µM | ACHN > 100 µM

N#CCCC(C=O)(CCC#N)CCC#N
inactive: MDA-N > 100 µM | U-251 > 100 µM | Malme-3M > 100 µM | DU-145 > 100 µM | CAKI-1 > 100 µM | SNB-19 > 100 µM | NCI-H460 > 100 µM | IGROV-1 > 100 µM | SF-295 > 100 µM | SK-MEL-28 > 100 µM | SN12C > 100 µM | OVCAR-5 > 100 µM | SK-MEL-2 > 100 µM | NCI-H226 > 100 µM | SF-539 > 100 µM | OVCAR-8 > 100 µM | LOX IMVI > 100 µM | ACHN > 100 µM
